Structures can show the parent of a compound that is named as a salt.
These molecules were tested against T1, Thromboxane A2 receptor (Rattus norvegicus, UniProt P34978) (assay: Thromboxane A2 receptor antagonistic action (inhibitory action of U-46619-induced contractions of rat aortic strips)). Conditions: isolated helical strips of rat aorta precontracted with 3×10^-8 M U-46619; read-out: IC50 (the concentrations which inhibited the contraction by 50%).
T1 sequence (P34978 1-341): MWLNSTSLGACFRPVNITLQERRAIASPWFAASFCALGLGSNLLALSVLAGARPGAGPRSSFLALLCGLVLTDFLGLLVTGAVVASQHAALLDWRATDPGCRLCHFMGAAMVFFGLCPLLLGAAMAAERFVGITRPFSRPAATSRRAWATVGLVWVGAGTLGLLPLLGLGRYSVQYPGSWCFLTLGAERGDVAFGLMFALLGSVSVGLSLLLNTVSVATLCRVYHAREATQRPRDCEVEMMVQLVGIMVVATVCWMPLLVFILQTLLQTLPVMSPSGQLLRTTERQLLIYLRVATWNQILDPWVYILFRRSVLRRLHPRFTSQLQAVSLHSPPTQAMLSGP
Type: cell-based

Structure (SMILES)	IC50 [nM]
O=C(O)c1cc(CCNS(=O)(=O)c2ccccc2)c2cccccc1-2 [Compound 1, 3-[2-(Benzenesulfonylamino)ethyl]-azulene-1-carboxylic acid]	21000
O=C(O)c1cc(CCCCNS(=O)(=O)c2ccccc2)c2cccccc1-2 [Compound 3, 3-[4-(Benzenesulfonylamino)butyl]-azulene-1-carboxylic acid]	570
O=C(O)c1cc(CCCCCCNS(=O)(=O)c2ccccc2)c2cccccc1-2 [Compound 5, 3-[6-(Benzenesulfonylamino)hexyl]-azulene-1-carboxylic acid]	140
O=C(O)c1cc(CCCCCCCCNS(=O)(=O)c2ccccc2)c2cccccc1-2 [Compound 7, 3-[8-(Benzenesulfonylamino)octyl]-azulene-1-carbaxylic acid]	15000
CC(C)c1cccc2c(CCCCNS(=O)(=O)c3ccccc3)cc(C(=O)O)c-2c1 [Compound 10, 7-Isopropyl-3-[4-(benzenesulfonylamino)butyl]-azulene-1-carboxylic acid]	3100
CC(C)c1cccc2c(CCCCCCNS(=O)(=O)c3ccccc3)cc(C(=O)O)c-2c1 [Compound 12, 7-Isopropyl-3-[6-(benzenesulfonylamino)hexyl]-azulene-1-carboxylic acid]	920
CC(C)c1cccc2c(CCNS(=O)(=O)c3ccccc3)cc(C=CC(=O)O)c-2c1 [Compound 14, 3-[7-Isopropyl-3-(2-(benzenesulfonylamino)ethyl)-azulene-1-yl]-2-propenoicacid]	21000
CC(C)c1ccc2c(CCNS(=O)(=O)c3ccccc3)cc(C(=O)O)c-2cc1 [Compound 15, 6-Isopropyl-3-[2-(benzenesulfonylamino)ethyl]-azulene-1-carboxylic acid]	60000
CC(C)c1ccc2c(CCCCNS(=O)(=O)c3ccccc3)cc(C(=O)O)c-2cc1 [Compound 17, 6-Isopropyl-3-[4-(benzenesulfonylamino)butyl]-azulene-1-carboxylic acid]	78
CC(C)c1ccc2c(CCCCCCNS(=O)(=O)c3ccccc3)cc(C(=O)O)c-2cc1 [Compound 19, 6-Isopropyl-3-[6-(benzenesulfonylamino)hexyl]-azulene-1-carboxylic acid]	70
Cc1ccc(S(=O)(=O)NCCCCc2cc(C(=O)O)c3ccc(C(C)C)ccc2-3)cc1 [Compound 22, 6-Isopropyl-3-[4-(4-methylbenzenesulfonylamino)butyl]-azulene-1-carboxylicacid]	20
COc1ccc(S(=O)(=O)NCCCCc2cc(C(=O)O)c3ccc(C(C)C)ccc2-3)cc1 [Compound 23, 6-Isopropyl-3-[4-(4-methoxybenzenesulfonylamino)butyl]-azulene-1-carboxylic acid]	16
CC(C)c1ccc2c(CCCCNS(=O)(=O)c3ccc(F)cc3)cc(C(=O)O)c-2cc1 [Compound 24, 6-Isopropyl-3-[4-(4-fluorobenzenesulfonylamino)butyl]-azulene-1-carboxylicacid]	11
CC(C)c1ccc2c(CCCCNS(=O)(=O)c3ccc(Cl)cc3)cc(C(=O)O)c-2cc1 [Compound 25, 6-Isopropyl-3-[4-(4-chlorobenzenesulfonylamino)butyl]-azulene-1-carboxylicacid]	5.3
CC(C)c1ccc2c(CCCCNS(=O)(=O)c3ccc(Cl)c(Cl)c3)cc(C(=O)O)c-2cc1 [Compound 26, 6-Isopropyl-3-[4-(3,4-dichlorobenzenesulfonylamino)butyl]-azulene-1-carboxylic acid]	43
CC(C)c1ccc2c(CCCCNS(=O)(=O)c3ccc(Br)cc3)cc(C(=O)O)c-2cc1 [Compound 27, 6-Isopropyl-3-[4-(4-bromobenzenesulfonylamino)butyl]-azulene-1-carboxylic acid]	5.3
CC(C)c1ccc2c(CCCCNS(=O)(=O)c3ccc(I)cc3)cc(C(=O)O)c-2cc1 [Compound 28, 6-Isopropyl-3-[4-(4-iodobenzenesulfonylamino)butyl]-azulene-1-carboxylic acid]	5.1
CC(C)c1ccc2c(CCCCNS(=O)(=O)c3ccc(C(F)(F)F)cc3)cc(C(=O)O)c-2cc1 [Compound 31, 6-Isopropyl-3-[4-(4-trifluoromethylbenzenesulfonylamino)butyl]-azulene-1-carboxylic acid]	12
CC(C)c1ccc2c(CCCCNS(=O)(=O)c3ccc([N+](=O)[O-])cc3)cc(C(=O)O)c-2cc1 [Compound 32, 6-Isopropyl-3-[4-(4-nitrobenzenesulfonylamino)butyl]-azulene-1-carboxylic acid]	13
CC(C)c1ccc2c(CCCCNS(=O)(=O)c3ccccc3)cc(CC(=O)O)c-2cc1 [Compound 33, 2-[6-Isopropyl-3-[4-(benzenesulfonylamino)butyl]-azulene-1-yl]-acetic acid]	300
CC(C)c1ccc2c(C=CC(=O)O)cc(CCCCNS(=O)(=O)c3ccccc3)c-2cc1 [Compound 36, 3-[6-Isopropyl-3-[4-(benzenesulfonylamino)butyl]-azulene-1-yl]-2-propenoicacid]	2400
CC(C)c1ccc2c(CCCCN(C)S(=O)(=O)c3ccccc3)cc(C(=O)O)c-2cc1 [Compound 37, 6-Isopropyl-3-[4-(N-methylbenzenesulfonylamino)butyl]-azulene-1-carboxylicacid]	10000
CC(C)c1ccc2c(CCCCNC(=O)c3ccccc3)cc(C(=O)O)c-2cc1 [Compound 41, 6-Isopropyl-3-[4-(benzoylamino)butyl]-azulene-1-carboxylic acid]	4400
CC(C)c1ccc2c(CCCCNS(=O)(=O)c3ccc(F)cc3)cc(S(=O)(=O)O)c-2cc1 [Compound 47, 6-Isopropyl-3-[4-(P-fluorobenzenesulfonylamino)butyl]-azulene-1-sulfonic acid sodium salt]	4.4
CC(C)c1ccc2c(CCCCNS(=O)(=O)c3ccc(Cl)cc3)cc(S(=O)(=O)O)c-2cc1 [Compound 48, 6-Isopropyl-3-[4-(P-chlorobenzenesulfonylamino)butyl]-azulene-1-sulfonic acid sodium salt]	1.7
CC(C)c1ccc2c(CCCCNS(=O)(=O)c3ccc(Cl)c(Cl)c3)cc(S(=O)(=O)O)c-2cc1 [Compound 49, 6-Isopropyl-3-[4-(3,4-dichlorobenzenesulfonylamino)butyl-azulene-1-sulfonic acid sodium salt]	15
CC(C)c1ccc2c(CCCCNS(=O)(=O)c3ccc(Br)cc3)cc(S(=O)(=O)O)c-2cc1 [Compound 50, 6-Isopropyl-3-[4-(P-bromobenzenesulfonylamino)butyl]-azulene-1-sulfonic ac id sodium salt]	1.7
CC(C)c1ccc2c(CCCCNS(=O)(=O)c3ccc(I)cc3)cc(S(=O)(=O)O)c-2cc1 [Compound 51, 6-Isopropyl-3-[4-(P-iodobenzenesulfonylamino)butyl]-azulene-1-sulfonicacid sodium salt]	1.6
CC(C)c1ccc2c(C(=O)O)cc([C@H](C)CCCNS(=O)(=O)c3ccccc3)c-2cc1 [Compound 54, 6-isopropyl-3-[(1R)-methyl-4-(benzenesulfonylamino)butyl]-azulene-1-carbolxylic acid]	210
CC(C)c1ccc2c(C(=O)O)cc([C@@H](C)CCCNS(=O)(=O)c3ccccc3)c-2cc1 [Compound 55, 6-isopropyl-3-[(1S)-methyl-4-(benzenesulfonylamino)butyl]-azulene-1-carboxylic acid]	44
